Assay results taken from US20230279025A1, “KRAS G12D INHIBITORS” (Mirati Therapeutics, Inc., priority 2020, published 2023).
pIC50: −log10 of the molar value. Structures can show the parent of a compound that is named as a salt.

Target: KRas G12D (Homo sapiens (Human), UniProt P01116, G12D)
Assay: KRas G12D Binding Assay (TR-FRET displacement of Cy5 labelled tracer)
Details: GDP-loaded KRAS G12D (amino acids 1:169), 60 minute incubation at 22° C.
Procedure: After a 60 minute incubation at 22° C., the reaction was measured using a PerkinElmer EnVision multimode plate reader via TR-FRET dual wavelength detection, and the percent of control (POC) calculated using a ratiometric emission factor. […] The POC values were fit to a 4-parameter logistic curve and the IC50 value was determined as the concentration where the curve crosses 50 POC.
ND stands for “not determined.”

KRas G12D, sequence (P01116 other isoform, or with tags, fused parts or gaps G12D): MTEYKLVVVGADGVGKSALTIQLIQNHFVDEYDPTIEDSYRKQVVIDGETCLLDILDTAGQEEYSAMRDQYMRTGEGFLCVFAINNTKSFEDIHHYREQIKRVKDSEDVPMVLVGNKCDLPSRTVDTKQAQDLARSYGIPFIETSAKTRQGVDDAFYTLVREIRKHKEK

| Structure (SMILES) | pIC50 |
| --- | --- |
| Oc1cc(-c2ncc3c(N4CC5C[C@@H](n6cncn6)C(C4)N5)nc(OC[C@@]45CCCN4C[C@H](F)C5)nc3c2F)c2ccccc2c1 (mixture of isomers) [Example 333, 4-(4-((6R)-6-(1H-1,2,4-triazol-1-yl)-3,8-diazabicyclo[3.2.1]octan-3-yl)-8-fluoro-2-((2-fluorotetrahydro-1H-pyrrolizin-7a(5H)-yl)methoxy)pyrido[4,3-d]pyrimidin-7-yl)naphthalen-2-ol (racemic, trans)] | 6.35 |
| N#C[C@H]1CCN2CCC[C@@]12COc1nc(N2CC3CCC(C2)N3)c2cnc(-c3cccc4cccc(Cl)c34)c(F)c2n1 (stereo in doubt) [Example 379, 7a-(((4-((1R,5S)-3,8-diazabicyclo[3.2.1]octan-3-yl)-7-(8-chloronaphthalen-1-yl)-8-fluoropyrido[4,3-d]pyrimidin-2-yl)oxy)methyl)hexahydro-1H-pyrrolizine-1-carbonitrile] | 6.60 |
| O=C1CCC2(COc3nc(N4CC5CCC(C4)N5)c4cnc(-c5cc(O)cc6ccccc56)c(F)c4n3)CCCN12 (stereo not drawn) [Example 462, 7a-(((4-(3,8-diazabicyclo[3.2.1]octan-3-yl)-8-fluoro-7-(3-hydroxynaphthalen-1-yl)pyrido[4,3-d]pyrimidin-2-yl)oxy)methyl)tetrahydro-1H-pyrrolizin-3(2H)-one] | 9.12 |
| Fc1c(-c2cccc3cccc(Cl)c23)ncc2c(N3C[C@H]4CC[C@@H](C3)N4)nc(OCC34CCCN3CC(F)(F)C4)nc12 (stereo partly drawn) [Example 93, 4-((1R,5S)-3,8-diazabicyclo[3.2.1]octan-3-yl)-7-(8-chloronaphthalen-1-yl)-2-((2,2-difluorotetrahydro-1H-pyrrolizin-7a(5H)-yl)methoxy)-8-fluoropyrido[4,3-d]pyrimidine bis(2,2,2-trifluoroacetate)] | 6.98 |
| Cc1ccc2cccc(-c3ncc4c(N5C[C@H]6CC[C@@H](C5)N6)nc(OC[C@@H]5CCCN5C)nc4c3F)c2c1 [Example 321, 4-((1R,5S)-3,8-diazabicyclo[3.2.1]octan-3-yl)-8-fluoro-7-(7-methylnaphthalen-1-yl)-2-(((S)-1-methylpyrrolidin-2-yl)methoxy)pyrido[4,3-d]pyrimidine] | 6.21 |
| CC(C)(N)COc1nc(N2CC3CCC(C2)N3)c2cnc(-c3cccc4cccc(Cl)c34)c(F)c2n1 [Example 387, bis(2,2,2-trifluoroacetate)] | 6.27 |
| CN1CCC[C@H]1COc1nc(N2C[C@H]3CC[C@@H](C2)N3)c2cnc(-c3cc(O)cc4cccc(Cl)c34)c(F)c2n1 [Example 63, 4-(4-((1R,5S)-3,8-diazabicyclo[3.2.1]octan-3-yl)-8-fluoro-2-(((S)-1-methylpyrrolidin-2-yl)methoxy)pyrido[4,3-d]pyrimidin-7-yl)-5-chloronaphthalen-2-ol] | 9.40 |
| O=C1CCC2(COc3nc(N4C[C@H]5CC[C@@H](C4)N5)c4cnc(-c5cccc6cccc(Cl)c56)c(F)c4n3)CCCN12 (stereo partly drawn) [Example 83, 7a-(((4-((1R,5S)-3,8-diazabicyclo[3.2.1]octan-3-yl)-7-(8-chloronaphthalen-1-yl)-8-fluoropyrido[4,3-d]pyrimidin-2-yl)oxy)methyl)hexahydro-3H-pyrrolizin-3-one bis(2,2,2-trifluoroacetate)] | 5.06 |
| OCC12CCCN1CC(Oc1nc(N3C[C@H]4CC[C@@H](C3)N4)c3cnc(-c4cccc5cccc(Cl)c45)c(F)c3n1)C2 (stereo partly drawn) [Example 222, (2-((4-((1R,5S)-3,8-diazabicyclo[3.2.1]octan-3-yl)-7-(8-chloronaphthalen-1-yl)-8-fluoropyrido[4,3-d]pyrimidin-2-yl)oxy)tetrahydro-1H-pyrrolizin-7a(5H)-yl)methanol bis-TFA salt] | 5.95 |
| CCc1cccc2cc(O)cc(-c3ncc4c(N5C[C@H]6CC[C@@H](C5)N6)nc(OC[C@]56CCCN5[C@@H](COC(=O)NC)CC6)nc4c3F)c12 [Example 433, ((3R,7aR)-7a-(((4-((1R,5S)-3,8-diazabicyclo[3.2.1]octan-3-yl)-7-(8-ethyl-3-hydroxynaphthalen-1-yl)-8-fluoropyrido[4,3-d]pyrimidin-2-yl)oxy)methyl)hexahydro-1H-pyrrolizin-3-yl)methyl methylcarbamate] | 9.05 |
| Fc1ccc2cccc(-c3ncc4c(N5C[C@H]6CC[C@@H](C5)N6)nc(OC[C@@]56CCCN5C[C@H](F)C6)nc4c3F)c2c1F [Example 430, 4-((1R,5S)-3,8-diazabicyclo[3.2.1]octan-3-yl)-7-(7,8-difluoronaphthalen-1-yl)-8-fluoro-2-(((2R,7aS)-2-fluorotetrahydro-1H-pyrrolizin-7a(5H)-yl)methoxy)pyrido[4,3-d]pyrimidine] | 9.00 |
| Fc1cccc(-c2ncc3c(N4C[C@H]5CC[C@@H](C4)N5)nc(OCC45CCCN4CCC5)nc3c2F)c1C(F)(F)F [Example 292, 4-((1R,5S)-3,8-diazabicyclo[3.2.1]octan-3-yl)-8-fluoro-7-(3-fluoro-2-(trifluoromethyl)phenyl)-2-((tetrahydro-1H-pyrrolizin-7a(5H)-yl)methoxy)pyrido[4,3-d]pyrimidine] | 7.88 |
| Oc1cc(-c2ncc3c(N4CC5CCC(C4)N5)nc(OCC45CCCN4C[C@H](F)C5)nc3c2F)c2c(Cl)cccc2c1 (mixture of isomers) [Example 330, 4-(4-((1R,5S)-3,8-diazabicyclo[3.2.1]octan-3-yl)-8-fluoro-2-((2-fluorotetrahydro-1H-pyrrolizin-7a(5H)-yl)methoxy)pyrido[4,3-d]pyrimidin-7-yl)-5-chloronaphthalen-2-ol (racemic, trans)] | 8.60 |
| C#Cc1c(F)ccc2cccc(-c3ncc4c(N5C[C@H]6CC[C@@H](C5)N6)nc(OCC56CCCN5CCC6)nc4c3F)c12 [Example 189, 4-((1R,5S)-3,8-diazabicyclo[3.2.1]octan-3-yl)-7-(8-ethynyl-7-fluoronaphthalen-1-yl)-8-fluoro-2-((tetrahydro-1H-pyrrolizin-7a(5H)-yl)methoxy)pyrido[4,3-d]pyrimidine] | 9.30 |
| Fc1c(-c2cccc3cccc(Cl)c23)ncc2c(N3CC4CCC(C3)N4)nc(OC[C@@H]3CC(F)(F)CN3)nc12 [Example 352, 4-((1R,5S)-3,8-diazabicyclo[3.2.1]octan-3-yl)-7-(8-chloronaphthalen-1-yl)-2-(((S)-4,4-difluoropyrrolidin-2-yl)methoxy)-8-fluoropyrido[4,3-d]pyrimidine bis(2,2,2-trifluoroacetate)] | 6.07 |
| Oc1cc(-c2ncc3c(N4CC5CCC(C4)N5)nc(OCC45CCCCN4CCC5)nc3c2F)c2ccccc2c1 (stereo not drawn) [Example 463, 4-(4-(3,8-diazabicyclo[3.2.1]octan-3-yl)-8-fluoro-2-((octahydroindolizin-8a-yl)methoxy)pyrido[4,3-d]pyrimidin-7-yl)naphthalen-2-ol] | 10.92 |
| CN1CCC(F)(COc2nc(N3C[C@H]4CC[C@@H](C3)N4)c3cnc(-c4cccc5cccc(Cl)c45)c(F)c3n2)CC1 [Example 398, 4-((1R,5S)-3,8-diazabicyclo[3.2.1]octan-3-yl)-7-(8-chloronaphthalen-1-yl)-8-fluoro-2-((4-fluoro-1-methylpiperidin-4-yl)methoxy)pyrido[4,3-d]pyrimidine] | 6.23 |
| C[C@@H]1C[C@H]1c1ccccc1-c1ncc2c(N3C[C@H]4CC[C@@H](C3)N4)nc(OCC34CCCN3CCC4)nc2c1F [Example 288, 4-((1R,5S)-3,8-diazabicyclo[3.2.1]octan-3-yl)-8-fluoro-2-((hexahydro-1H-pyrrolizin-7a-yl)methoxy)-7-(2-((1R,2R)-2-methylcyclopropyl)phenyl)pyrido[4,3-d]pyrimidine] | 6.23 |
| CC(C)c1ccc(O)cc1-c1ncc2c(N3C[C@H]4CC[C@@H](C3)N4)nc(OCC34CCCN3CCC4)nc2c1F [Example 403, 3-(4-((1R,5S)-3,8-diazabicyclo[3.2.1]octan-3-yl)-8-fluoro-2-((tetrahydro-1H-pyrrolizin-7a(5H)-yl)methoxy)pyrido[4,3-d]pyrimidin-7-yl)-4-isopropylphenol] | 8.72 |
| Cn1cnc2ccc(Oc3nc(N4C[C@H]5CC[C@@H](C4)N5)c4cnc(-c5cccc6cccc(Cl)c56)c(F)c4n3)cc21 [Example 148, 4-((1R,5S)-3,8-diazabicyclo[3.2.1]octan-3-yl)-7-(8-chloronaphthalen-1-yl)-8-fluoro-2-((1-methyl-1H-benzo[d]imidazol-6-yl)oxy)pyrido[4,3-d]pyrimidine] | 5.29 |
| O[C@@H]1C[C@@H]2CN(c3nc(OCCC(F)(F)F)nc4c(F)c(-c5cccc6cccc(Cl)c56)ncc34)C[C@H]1N2 [Example 155, (1R,5R,6R)-3-(7-(8-chloronaphthalen-1-yl)-8-fluoro-2-(3,3,3-trifluoropropoxy)pyrido[4,3-d]pyrimidin-4-yl)-3,8-diazabicyclo[3.2.1]octan-6-ol] | 5.47 |
| O[C@H]1CN2CCC[C@@]2(COc2nc(N3CC4CCC(C3)N4)c3cnc(-c4cccc5cccc(Cl)c45)c(F)c3n2)C1 [Example 223, 7a-(((4-((1R,5S)-3,8-diazabicyclo[3.2.1]octan-3-yl)-7-(8-chloronaphthalen-1-yl)-8-fluoropyrido[4,3-d]pyrimidin-2-yl)oxy)methyl)hexahydro-1H-pyrrolizin-2-ol bis-2,2,2-trifluoroacetate] | 8.15 |
| Nc1nc(N2CC3CCC(C2)N3)c2cnc(-c3cc(O)cc4ccccc34)c(F)c2n1 [Example 182, 4-[2-amino-4-(3,8-diazabicyclo[3.2.1]octan-3-yl)-8-fluoro-pyrido[4,3-d]pyrimidin-7-yl]naphthalen-2-ol] | 6.57 |
| CC(C)c1ccccc1-c1ncc2c(N3CC4CCC(C3)N4)nc(OCC34CCCN3C[C@H](F)C4)nc2c1F (stereo partly drawn) [Example 348, 4-((1R,5S)-3,8-diazabicyclo[3.2.1]octan-3-yl)-8-fluoro-2-((2-fluorotetrahydro-1H-pyrrolizin-7a(5H)-yl)methoxy)-7-(2-isopropylphenyl)pyrido[4,3-d]pyrimidine] | 7.81 |
